Where two headings read alike, the source gives them in different places.
Key:
[1] = molecular target: T1, BRAF (Homo sapiens, UniProt P15056); assay: BRAF-inhibiting activity, time-resolved fluorescence-fluorescence resonance energy transfer assay; format: biochemical
T1 construct: purchased Eurofins Genomics KK; (BRAF); Thermo Fisher Scientific Inc. (MEK1)
Method: The BRAF-inhibiting activity of the compounds listed in Table 3 below was evaluated by the time-resolved fluorescence-fluorescence resonance energy transfer assay as described below.

[2] = molecular target: T2, MEK1 (Homo sapiens, UniProt Q02750); assay: MEK1-inhibiting activity, fluorescent polarization method (CRAF/MEK1/ERK2 cascade, IMAP); format: biochemical; conditions: Table 3; read-out: MEK1 IC50
T2 construct: purchased Thermo Fisher Scientific Inc. (MEK1, CRAF); Carna Biosciences, Inc. (ERK2)
T2 sequence (Q02750 whole entry): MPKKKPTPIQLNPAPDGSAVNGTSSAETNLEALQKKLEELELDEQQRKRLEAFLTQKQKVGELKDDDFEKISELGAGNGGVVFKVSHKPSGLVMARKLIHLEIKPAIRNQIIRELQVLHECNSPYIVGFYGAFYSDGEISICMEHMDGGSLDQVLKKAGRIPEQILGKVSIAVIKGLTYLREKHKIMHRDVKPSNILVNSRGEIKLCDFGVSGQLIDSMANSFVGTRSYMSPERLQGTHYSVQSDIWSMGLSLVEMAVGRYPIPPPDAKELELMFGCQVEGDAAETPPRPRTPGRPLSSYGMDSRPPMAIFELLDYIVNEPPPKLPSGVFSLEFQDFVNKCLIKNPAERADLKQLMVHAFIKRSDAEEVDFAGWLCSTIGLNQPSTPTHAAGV
Method: The MEK1-inhibiting activity of the compounds listed in Table 3 below were evaluated by the fluorescent polarization method as described below.

[3] = Human liver microsome stability; format: in vitro ADME; conditions: human liver microsomes, pH 7.4
[4] = system: A549; assay: Cell proliferation-inhibiting activity (ATP in viable cells, CellTiter-Glo), A549; format: cell-based, human; conditions: human lung cancer cells, 4 days, read-out: A549 IC50
[5] = system: NCI-H2122; assay: Cell proliferation-inhibiting activity (ATP in viable cells, CellTiter-Glo), NCI-H2122; format: cell-based, human; conditions: human lung cancer cells, 4 days, read-out: NCI-H2122 IC50

T1 sequence (P15056 417-766 limits assumed): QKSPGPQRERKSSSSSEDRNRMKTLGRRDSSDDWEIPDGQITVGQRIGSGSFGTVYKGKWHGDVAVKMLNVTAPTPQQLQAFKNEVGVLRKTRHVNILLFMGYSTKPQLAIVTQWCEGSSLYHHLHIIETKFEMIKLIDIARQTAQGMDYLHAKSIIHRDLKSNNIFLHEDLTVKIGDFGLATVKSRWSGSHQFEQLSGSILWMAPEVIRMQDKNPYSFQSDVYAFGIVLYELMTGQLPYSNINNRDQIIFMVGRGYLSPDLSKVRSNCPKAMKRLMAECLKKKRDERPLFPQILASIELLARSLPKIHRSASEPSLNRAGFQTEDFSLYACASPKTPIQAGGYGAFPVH

## CNS(=O)(=O)Nc1nccc(Cc2cc(C(=O)NC3CC3)c(Nc3ccc(I)cc3F)c(F)c2F)c1F [Compound A-2, N-cyclopropyl-3,4-difluoro-2-(2-fluoro-4-iodoanilino)-5-[[3-fluoro-2-(methylsulfamoylamino)pyridin-4-yl]methyl]benzamide]
[1]; read-out: BRAF IC50; Table 3
  IC50: 3 nM
[2]
  IC50: 5 nM
[3]
  microsomal CLint at 0.99 µM: 25 µL/min/mg

## COCC1(NS(=O)(=O)Nc2nccc(Cc3cc(C(N)=O)c(Nc4ccc(I)cc4F)c(F)c3F)c2F)CC1 [Compound A-16]
[4]
  IC50: 14 nM
[1]; Table 3; read-out: BRAF IC50
  IC50: 3 nM
[5]
  IC50: 3 nM
[2]
  IC50: 8 nM

## NC(=O)c1cc(Cc2ccnc(NS(=O)(=O)NC3C4COCC43)c2F)c(F)c(F)c1Nc1ccc(I)cc1F (stereo not drawn) [Compound A-22, 3,4-Difluoro-2-(2-fluoro-4-iodoanilino)-5-[[3-fluoro-2-(3-oxabicyclo[3. 1.0]hexan-6-ylsulfamoylamino)pyridin-4-yl]methyl]benzamide]
[4]
  IC50: 31 nM
[1]; Table 3; read-out: BRAF IC50
  IC50: 2 nM
[5]
  IC50: 10 nM
[2]
  IC50: 6 nM

## CCNS(=O)(=O)Nc1nccc(Cc2cc(C(=O)NOCCO)c(Nc3ccc(I)cc3F)c(F)c2F)c1F [Compound A-44, 5-[[2-(Ethylsulfamoylamino)-3-fluoropyridin-4-yl]methyl]-3,4-difluoro-2-(2-fluoro-4-iodoanilino)-N-(2-hydroxyethoxy)benzamide]
[1]; Table 3; read-out: BRAF IC50
  IC50: 19 nM
[5]; NCI-H2122, 96 h
  IC50: 1 nM
[2]
  IC50: 2 nM

## CCCNS(=O)(=O)Nc1nccc(Cc2cc(C(=O)NOCCO)c(Nc3ccc(I)cc3F)c(F)c2F)c1F [Compound A-45, 3,4-Difluoro-2-(2-fluoro-4-iodoanilino)-5-[[3-fluoro-2-(propylsulfamoylamino)pyridin-4-yl]methyl]-N-(2-hydroxyethoxy)benzamide]
[4]; A549, 96 h
  IC50: 5 nM
[1]; read-out: BRAF IC50; Table 3
  IC50: 6 nM
[5]; NCI-H2122, 96 h
  IC50: 1 nM
[2]
  IC50: 2 nM

## CC1(NS(=O)(=O)Nc2nccc(Cc3cc(C(=O)NC4CC4)c(Nc4ccc(I)cc4F)c(F)c3F)c2F)CCC1 [Compound A-47, N-Cyclopropyl-3,4-difluoro-2-(2-fluoro-4-iodoanilino)-5-[[3-fluoro-2-[(1-methylcyclobutyl)sulfamoylamino]pyridin-4-yl]methyl]benzamide]
[1]; read-out: BRAF IC50; Table 3
  IC50: 21 nM
[5]; NCI-H2122, 96 h
  IC50: 17 nM
[2]
  IC50: 39 nM
[3]
  microsomal CLint at 0.99 µM: 38 µL/min/mg

## CC1(NS(=O)(=O)Nc2cccc(Cc3cc(C(=O)NC4CC4)c(Nc4ccc(I)cc4F)c(F)c3F)c2F)CCC1 [Compound D-10, N-Cyclopropyl-3,4-difluoro-2-(2-fluoro-4-iodoanilino)-5-[[2-fluoro-3-[(1-methylcyclobutyl)sulfamoylamino]phenyl]methyl]benzamide]
[1]; read-out: BRAF IC50; Table 3
  IC50: 34 nM
[5]; NCI-H2122, 96 h
  IC50: 28 nM
[2]
  IC50: 261 nM
[3]
  microsomal CLint at 0.99 µM: 107 µL/min/mg

## CNS(=O)(=O)Nc1cccc(Cc2cc(C(=O)NC3CC3)c(Nc3ccc(C4CC4)cc3F)c(F)c2F)c1F [Compound D-15, N-Cyclopropyl-2-(4-cyclopropyl-2-fluoroanilino)-3,4-difluoro-5-[[2-fluoro-3-(methylsulfamoylamino)phenyl]methyl]benzamide]
[1]; read-out: BRAF IC50; Table 3
  IC50: 17 nM
[2]
  IC50: 1240 nM
[3]
  microsomal CLint at 0.99 µM: 91 µL/min/mg

## CNS(=O)(=O)Nc1nccc(Cc2cc(C(=O)NC3CC3)c(Nc3ccc(C4CC4)cc3F)c(F)c2F)c1F [Compound G-1, N-Cyclopropyl-2-(4-cyclopropyl-2-fluoroanilino)-3,4-difluoro-5-[[3-fluoro-2-(methylsulfamoylamino)pyridin-4-yl]methyl]benzamide]
[1]; read-out: BRAF IC50; Table 3
  IC50: 12 nM
[2]
  IC50: 222 nM
[3]
  microsomal CLint at 0.99 µM: 32 µL/min/mg

## CCS(=O)(=O)Nc1nccc(Cc2cc(C(=O)NC3CC3)c(Nc3ccc(C4CC4)cc3F)c(F)c2F)c1F [Compound G-7, N-Cyclopropyl-2-(4-cyclopropyl-2-fluoroanilino)-5-[[2-(ethylsulfonylamino)-3-fluoropyridin-4-yl]methyl]-3,4-difluorobenzamide]
[1]; read-out: BRAF IC50; Table 3
  IC50: 46 nM
[5]; NCI-H2122, 96 h
  IC50: 75 nM
[2]
  IC50: 2470 nM
[3]
  microsomal CLint at 0.99 µM: 21 µL/min/mg

## NC(=O)c1cc(Cc2ccnc(NS(=O)(=O)NC3CC3)c2F)c(F)cc1Nc1ccc(I)cc1F [Compound I-3, 5-[[2-(Cyclopropylsulfamoylamino)-3-fluoropyridin-4-yl]methyl]-4-flu oro-2-(2-fluoro-4-iodoanilino)benzamide]
[1]; read-out: BRAF IC50; Table 3
  IC50: 2 nM
[2]
  IC50: 55 nM
[3]
  microsomal CLint at 0.99 µM: 16 µL/min/mg

## COCCNS(=O)(=O)Nc1nccc(Cc2cc(C(N)=O)c(Nc3ccc(I)cc3F)cc2F)c1F [Compound I-4, 4-Fluoro-2-(2-fluoro-4-iodoanilino)-5-[[3-fluoro-2-(2-methoxyethylsulfamoylamino)pyridin-4-yl]methyl]benzamide]
[1]; read-out: BRAF IC50; Table 3
  IC50: 4 nM
[5]; NCI-H2122, 96 h
  IC50: 83 nM
[2]
  IC50: 275 nM
[3]
  microsomal CLint at 0.99 µM: 25 µL/min/mg

## COCCNS(=O)(=O)Nc1nccc(Cc2cc(C(N)=O)c(Nc3ccc(I)cc3F)n(C)c2=O)c1F [Compound J-2, 2-(2-Fluoro-4-iodoanilino)-5-[[3-fluoro-2-(2-methoxyethylsulfamoylamino)pyridin-4-yl]methyl]-1-methyl-6-oxopyridine-3-carboxamide]
[1]; read-out: BRAF IC50; Table 3
  IC50: 11 nM
[5]; NCI-H2122, 96 h
  IC50: 130 nM
[2]
  IC50: 495 nM
[3]
  microsomal CLint at 0.99 µM: 16 µL/min/mg

## CNS(=O)(=O)Nc1nccc(Cc2cc(C(N)=O)c(Nc3ccc(C4CC4)cc3F)n(C)c2=O)c1F [Compound J-3, 2-(4-Cyclopropyl-2-fluoroanilino)-5-[[3-fluoro-2-(methylsulfamoylamino)pyridin-4-yl]methyl]-1-methyl-6-oxopyridine-3-carboxamide]
[1]; read-out: BRAF IC50; Table 3
  IC50: 11 nM
[2]
  IC50: 308 nM
[3]
  microsomal CLint at 0.99 µM: 23 µL/min/mg

## COCCNS(=O)(=O)Nc1nccc(Cc2cc(C(=O)NOC)c(Nc3ccc(I)cc3F)n(C)c2=O)c1F [Compound J-9, 2-(2-Fluoro-4-iodoanilino)-5-[[3-fluoro-2-(2-methoxyethylsulfamoylamino)pyridin-4-yl]methyl]-N-methoxy-1-methyl-6-oxopyridine-3-carbox amide]
[1]; read-out: BRAF IC50; Table 3
  IC50: 3 nM
[5]; NCI-H2122, 96 h
  IC50: 17 nM
[2]
  IC50: 64 nM
[3]
  microsomal CLint at 0.99 µM: 23 µL/min/mg

## CCS(=O)(=O)Nc1cc(Cc2cc(C(N)=O)c(Nc3ccc(I)cc3F)n(C)c2=O)ccn1 [Compound J-12, 5-[[2-(Ethylsulfonylamino)pyridin-4-yl]methyl]-2-(2-fluoro-4-iodoanilino)-1-methyl-6-oxopyridine-3-carboxamide]
[5]; NCI-H2122, 96 h
  IC50: 180 nM
[2]
  IC50: 2290 nM
[3]
  microsomal CLint at 0.99 µM: 19 µL/min/mg

## Cn1c(Nc2ccc(I)cc2F)c(C(N)=O)cc(Cc2ccnc(NS(=O)(=O)NC3CC3)c2F)c1=O [Compound J-13, 5-[[2-(Cyclopropylsulfamoylamino)-3-fluoropyridin-4-yl]methyl]-2-(2-fluoro-4-iodoanilino)-1-methyl-6-oxopyridine-3-carboxamide]
[1]; read-out: BRAF IC50; Table 3
  IC50: 4 nM
[5]; NCI-H2122, 96 h
  IC50: 80 nM
[2]
  IC50: 29 nM
[3]
  microsomal CLint at 0.99 µM: 39 µL/min/mg

## CCNS(=O)(=O)Nc1nccc(Cc2cc(C(N)=O)c(Nc3ccc(I)cc3F)n(C)c2=O)c1F [Compound J-14, 5-[[2-(ethylsulfamoylamino)-3-fluoropyridin-4-yl]methyl]-2-(2-fluoro-4-iodoanilino)-1-methyl-6-oxopyridine-3-carboxamide]
[1]; read-out: BRAF IC50; Table 3
  IC50: 3 nM
[5]; NCI-H2122, 96 h
  IC50: 37 nM
[2]
  IC50: 22 nM
[3]
  microsomal CLint at 0.99 µM: 34 µL/min/mg

## Cn1c(Nc2ccc(I)cc2F)c(C(N)=O)cc(Cc2ccnc(NS(=O)(=O)NC3(C)CCC3)c2F)c1=O [Compound J-15, 2-(2-Fluoro-4-iodoanilino)-5-[[3-fluoro-2-[(1-methylcyclobutyl)sulfamoylamino]pyridin-4-yl]methyl]-1-methyl-6-oxopyridine-3-carboxamide]
[1]; read-out: BRAF IC50; Table 3
  IC50: 12 nM
[5]; NCI-H2122, 96 h
  IC50: 46 nM
[2]
  IC50: 56 nM
[3]
  microsomal CLint at 0.99 µM: 225 µL/min/mg

## CCCNS(=O)(=O)Nc1nccc(Cn2cc(C(N)=O)c(Nc3ccc(I)cc3F)c(F)c2=O)c1F [Compound N-2, 5-Fluoro-4-(2-fluoro-4-iodoanilino)-1-[[3-fluoro-2-(propylsulfamoylamino)pyridin-4-yl]methyl]-6-oxopyridine-3-carboxamide]
[1]; read-out: BRAF IC50; Table 3
  IC50: 1 nM
[5]; NCI-H2122, 96 h
  IC50: 60 nM
[2]
  IC50: 1 nM
[3]
  microsomal CLint at 0.99 µM: 11 µL/min/mg

## CCS(=O)(=O)Nc1nccc(Cn2cc(C(N)=O)c(Nc3ccc(I)cc3F)c(C)c2=O)c1F [Compound P-2, 1-[[2-(Ethylsulfonylamino)-3-fluoropyridin-4-yl]methyl]-4-(2-fluoro-4-iodoanilino)-5-methyl-6-oxopyridine-3-carboxamide]
[2]
  IC50: 8 nM
[3]
  microsomal CLint at 0.99 µM: 3 µL/min/mg

## Cc1c(Nc2ccc(I)cc2F)c(C(N)=O)cn(Cc2ccnc(NS(=O)(=O)NC3(C)CCC3)c2F)c1=O [Compound P-3, 4-(2-Fluoro-4-iodoanilino)-1-[[3-fluoro-2-[(1-methylcyclobutyl)sulfamoylamino]pyridin-4-yl]methyl]-5-methyl-6-oxopyridine-3-carboxamide]
[1]; read-out: BRAF IC50; Table 3
  IC50: 10 nM
[5]; NCI-H2122, 96 h
  IC50: 96 nM
[2]
  IC50: 3 nM
[3]
  microsomal CLint at 0.99 µM: 37 µL/min/mg

## CCS(=O)(=O)Nc1nccc(Cn2cc(C(=O)NOC)c(Nc3ccc(I)cc3F)c(C)c2=O)c1F [Compound P-5]
[1]; read-out: BRAF IC50; Table 3
  IC50: 11 nM
[5]; NCI-H2122, 96 h
  IC50: 31 nM
[2]
  IC50: 11 nM
[3]
  microsomal CLint at 0.99 µM: 2 µL/min/mg

## O=C(NOC[C@H](O)CO)c1ccc(F)c(F)c1Nc1ccc(I)cc1F [Ref-1, N-[(2R)-2,3-Dihydroxypropoxy]-3,4-difluoro-2-(2-fluoro-4-iodoanilino)benzamide, reference compound]
[3]
  microsomal CLint at 0.99 µM: 20 µL/min/mg

— patent EP4725941A1, “ARYLAMIDE DERIVATIVE HAVING ANTITUMOR ACTIVITY” (priority 2020, dated 2021)
